From patent US8039623B2, “Inhibitors of serine proteases, particularly HCV NS3-NS4A protease” (Vertex Pharmaceuticals Incorporated, priority 2003, dated 2011)

molecular target: HCV NS3-NS4A protease (tNS3 with KK4A) (Hepatitis C virus genotype 1a, UniProt P27958); test: HCV Enzyme Assay Protocol (HPLC microbore separation of 5AB substrate and products); assay type: biochemical; settings: 25 nM tNS3, 25 μM KK4A, 25 μM 5AB substrate, 20 min at 30° C.; read-out: Ki range
Protocol: HCV Enzyme Assay Protocol
HPLC Microbore method for separation of 5AB substrate and products
• NH2-Glu-Asp-Val-Val-(alpha)Abu-Cys-Ser-Met-Ser-Tyr-COOH
A stock solution of 20 mM 5AB (or concentration of your choice) was made in DMSO w/0.2M DTT. This was stored in aliquots at −20° C.
Buffer: 50 mM HEPES, pH 7.8; 20% glycerol; 100 mM NaCl
Total assay volume was 100 μL
The buffer, KK4A, DTT, and tNS3 were combined; distributed 78 μL each into wells of 96 well plate. This was incubated at 30° C. for ˜5-10 min.
2.5 μL of appropriate concentration of test compound was dissolved in DMSO (DMSO only for control) and added to each well. This was incubated at room temperature for 15 min.
Initiated reaction by addition of 20 μL of 250 μM 5 AB substrate (25 μM concentration is equivalent or slightly lower than the Km for 5 AB).
Incubated for 20 min at 30° C.
Terminated reaction by addition of 25 μL of 10% TFA
Transferred 120 μL aliquots to HPLC vials
Separated SMSY product from substrate and KK4A by the following method:
Microbore Separation Method:
Instrumentation: Agilent 1100
• Degasser G1322A • Binary pump G1312A • Autosampler G1313A • Column thermostated chamber G1316A • Diode array detector G1315A Column • Phenonex Jupiter; 5 micron C18; 300 angstroms; 150×2 mm; P/O • 00F-4053-B0 • Column thermostat: 40 C • Injection volume: 100 μL • Solvent A=HPLC grade water+0.1% TFA • Solvent B=HPLC grade acetonitrile+0.1% TFA
• Stop time: 17 min • Post-run time: 10 min.

Chain of HCV NS3-NS4A protease (tNS3 with KK4A) (P27958 1658-1711): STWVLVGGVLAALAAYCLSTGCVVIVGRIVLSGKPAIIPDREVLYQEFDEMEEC
Chain of HCV NS3-NS4A protease (tNS3 with KK4A) (P27958 1027-1208): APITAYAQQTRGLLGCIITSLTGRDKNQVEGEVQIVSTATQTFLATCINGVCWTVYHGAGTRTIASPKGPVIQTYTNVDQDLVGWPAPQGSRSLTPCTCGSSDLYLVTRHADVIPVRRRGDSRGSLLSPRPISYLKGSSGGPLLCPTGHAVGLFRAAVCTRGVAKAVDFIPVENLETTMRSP

SMILES	Ki
CCC[C@H](NC(=O)[C@@H]1C[C@@H](Oc2ccc(Cl)cn2)CN1C(=O)[C@@H](NC(=O)[C@@H](NC(=O)c1cnccn1)C1CCCCC1)C(C)(C)C)C(=O)NS(=O)(=O)c1ccccc1 [Compound 2]	> 5 µM
CCC[C@H](NC(=O)[C@@H]1CC2(CN1C(=O)[C@@H](NC(=O)[C@@H](NC(=O)c1cnccn1)C1CCCCC1)C(C)(C)C)SCCCS2)C(=O)NS(=O)(=O)c1ccccc1 [Compound 1]	> 5 µM
CCC[C@H](NC(=O)[C@@H]1CC2(CN1C(=O)[C@@H](NC(=O)[C@@H](NC(=O)c1[nH]c(C)c(C)c1C(C)=O)C1CCCCC1)C(C)(C)C)SCCCS2)C(=O)NS(=O)(=O)c1ccccc1 [Compound 3]	1 to 5 µM
